Experimental data reported in PubChem BioAssay (NCI).
Where “and” joins values, the source holds several entries; their conditions need not be identical. Equal values may be shown once.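 Values below derive from 48-hour exposures of cells grown in 96-well plates, with endpoints linearly interpolated between the two concentrations bracketing the appropriate inhibition level. GI50 is the concentration that inhibits growth by half. The concentration for full growth arrest is given as TGI.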

Tests used:
Test in all cases: NCI-60 cell line screen, 48 h
DMS 273 small cell lung = system: DMS 273 small cell lung
SNB-78 CNS = system: SNB-78 CNS
M19-MEL melanoma = system: M19-MEL melanoma
LXFL 529 NSCLC = system: LXFL 529 NSCLC
XF 498 CNS = system: XF 498 CNS
HOP-18 NSCLC = system: HOP-18 NSCLC
DMS 114 small cell lung = system: DMS 114 small cell lung
MDA-N = system: MDA-N
RXF-631 renal = system: RXF-631 renal
SN12K1 renal = system: SN12K1 renal

| Compound | TGI (DMS 273 small cell lung) | TGI (SNB-78 CNS) | TGI (M19-MEL melanoma) | TGI (LXFL 529 NSCLC) | TGI (XF 498 CNS) | TGI (HOP-18 NSCLC) | TGI (DMS 114 small cell lung) | TGI (MDA-N) | further results |
| --- | --- | --- | --- | --- | --- | --- | --- | --- | --- |
| COC(=O)c1cccn1C(=O)n1cccc1 | > 100 µM | > 100 µM | > 100 µM | > 100 µM | > 100 µM | > 100 µM | > 100 µM |  |  |
| Nc1nnnn1CCO |  |  |  |  |  |  |  | > 100 µM |  |
| O=C(CCN1CCN(c2ccccc2)CC1)N1CCc2c([nH]c3ccccc23)C1c1cccnc1 (stereo not drawn) | 32.3 µM | 37 µM | 37.1 µM | 31.6 µM |  | 36.1 µM | 27 µM |  |  |
| CC(=O)OC[C@@H](COC(=O)/C=C/c1ccc(O)cc1)OC1OC(CO)C(O)C(O)C1O (stereo partly drawn) |  | > 100 µM | > 100 µM | > 100 µM | > 100 µM | > 100 µM |  |  | TGI (RXF-631 renal): > 100 µM |
| O=C(O)C1(C(=O)O)CCC1.[NH2-].[NH2-].[Pt+2] | 228 µM | 217 µM |  | > 250 µM |  | 118 µM |  | > 250 µM | GI50 (DMS 273 small cell lung): 64.7 µM; GI50 (MDA-N): 182 µM and > 220 µM; GI50 (SNB-78 CNS): 96.4 µM; GI50 (SN12K1 renal): 107 µM; TGI (SN12K1 renal): 185 µM; GI50 (LXFL 529 NSCLC): 247 µM; GI50 (HOP-18 NSCLC): > 77.3 µM and 111 µM |
| CCOC(=O)N1CCC(=O)C(CNC23CC4CC(CC(C4)C2)C3)C1 (stereo not drawn) | 52.9 µM |  | 35.3 µM | 33.3 µM | 32.8 µM |  |  |  | TGI (RXF-631 renal): > 100 µM |
| C/C1=C/C(=O)O[C@@H]2C[C@@H](CC[C@H](C)/C=C\C=C\CC1)O[C@@](O)([C@@H]1CSC(=O)N1)C2 |  |  |  |  |  |  |  | > 10 µM |  |
| CC(=O)C1C(c2ccc(N(C)C)cc2)c2cc3c(cc2OC1(C)O)OCO3 (stereo not drawn) | > 100 µM | > 100 µM | > 100 µM |  | > 100 µM | > 100 µM | 93.3 µM |  |  |
| COc1ccc2ccccc2c1C1NC(=O)c2ccccc2N1 (stereo not drawn) |  |  |  |  |  |  |  | 0.413 µM |  |
| O=C(c1ccccc1)C1OC12C(=O)Nc1c(Cl)cc(Cl)cc12 (stereo not drawn) | 47.7 µM | 99.9 µM | > 77.6 µM | > 53.9 µM | 65.1 µM | > 100 µM | > 100 µM |  | TGI (RXF-631 renal): > 100 µM |
| CCC/C(=N\NC(=S)N1CC2CCC(CC2)C1)c1ccccn1 | 0.374 µM and 2.35 µM | 8.71 µM | 0.298 µM and 1.46 µM | 0.143 µM and 0.129 µM | 0.0981 µM and 0.53 µM | 0.44 µM and 0.898 µM |  | 2.72 µM | GI50 (SNB-78 CNS): 0.408 µM; GI50 (XF 498 CNS): 0.0106 µM; GI50 (HOP-18 NSCLC): 0.0675 µM |
| COc1cc(-c2cc(O)c(-c3ccc4ccccc4n3)c(=O)[nH]2)cc(OC)c1OC |  |  |  |  |  |  |  | 34.9 µM |  |
| Nc1nc2c(ncn2C2C=CC(CO)C2)c(=O)[nH]1 (stereo not drawn) |  |  |  |  |  |  |  | > 100 µM |  |
| CC12CCC3(OCCO3)C(OC(=O)c3ccccc3)=C1CCC21OCCO1 (stereo not drawn) | > 100 µM | > 100 µM | > 100 µM | > 100 µM |  | > 100 µM | > 100 µM |  | TGI (RXF-631 renal): > 100 µM |
| CCC[CH2][Sn]1([CH2]CCC)[O]CC(CN(C)Cc2ccccc2)[O]1 (stereo not drawn) | 20.5 µM | 10.8 µM | 19.8 µM | 5 µM | 9.77 µM |  | 14.3 µM |  | GI50 (DMS 273 small cell lung): 4.93 µM; GI50 (SNB-78 CNS): 2.14 µM; GI50 (M19-MEL melanoma): 6.73 µM; GI50 (LXFL 529 NSCLC): 1.6 µM; GI50 (XF 498 CNS): 3.33 µM; GI50 (DMS 114 small cell lung): 4.73 µM |
| Cc1cccc(C)c1NC(=O)C1C(=O)N(c2c(C)cccc2C)C(=O)/C1=N\N (stereo not drawn) | > 100 µM |  | > 100 µM | > 100 µM |  | > 100 µM |  |  | TGI (RXF-631 renal): > 100 µM |
| CN1C(=O)C2C3C=C4c5ccccc5N(c5ccccc5)C4(C2C1=O)[C@H]1C(=O)N(C)C(=O)[C@@H]31 (stereo partly drawn) |  |  | > 100 µM | > 100 µM | > 100 µM |  | > 100 µM |  |  |
